The text below walks through data of ChEMBL document CHEMBL4825673, “Total and Semisyntheses of Polymyxin Analogues with 2-Thr or 10-Thr Modifications to Decipher the Structure-Activity Relationship and Improve the Antibacterial Activity” (J Med Chem, 2021).

For one data set, the system named is Moraxella catarrhalis. The experiment in a line: Antibacterial activity against Moraxella catarrhalis assessed as inhibition of bacterial growth incubated for 24 hrs by broth microdilution method. It counts as functional. The following applies: read-out: MIC100.
In a further data set the test system is Acinetobacter baumannii. The data set is described as follows: Antibacterial activity against Acinetobacter baumannii assessed as inhibition of bacterial growth incubated for 24 hrs by broth microdilution method. It counts as functional. The following applies: read-out: MIC100. On the technique in general: Dilution methods test growth across graded concentrations, often in twofold steps.

Data set [1] has as its system Pseudomonas aeruginosa. The experiment in a line: Antibacterial activity against Pseudomonas aeruginosa PAO1 assessed as inhibition of bacterial growth incubated for 24 hrs by broth microdilution method. It counts as functional. Particulars: read-out: MIC100.
A further data set has as its system Escherichia coli. The experiment in a line: Antibacterial activity against Escherichia coli assessed as inhibition of bacterial growth incubated for 24 hrs by broth microdilution method. It counts as functional. Particulars: read-out: MIC100.
A further data set has as its system Klebsiella pneumoniae. The data set is described as follows: Antibacterial activity against Klebsiella pneumoniae assessed as inhibition of bacterial growth incubated for 24 hrs by broth microdilution method. It counts as functional. The following applies: read-out: MIC100.
For data set [2], the system named is Pseudomonas aeruginosa. The data set is described as follows: Antibacterial activity against Pseudomonas aeruginosa assessed as inhibition of bacterial growth incubated for 24 hrs by broth microdilution method. It counts as functional. The following applies: read-out: MIC100.
The next data set has as its system HK-2. The data set is described as follows: Cytotoxicity against human HK-2 cells assessed as cell viability incubated for 72 hrs by CCK-8 assay. The following applies: hk-2, 72 h. It counts as cell-based. A general note: Formazan colour is commonly taken as a measure of viable cells.

Converted amounts (≈) assume the structure as drawn. Positions of bridges follow the written chain, without caps; N, C: chain ends. Non-standard residues stand in square brackets, D forms with d. Residues, ends and D or L forms follow the SMILES beside them. *: point of attachment. Octanoyl = CCCCCCCC(=O)*; Dab = NCC[C@H](N)C(=O)O

Consider `CC(C)CCCCC(=O)N[C@@H](CCN)C(=O)N[C@H](C(=O)N[C@@H](CCN)C(=O)N[C@H]1CCNC(=O)[C@H]([C@@H](C)O)NC(=O)[C@H](CCN)NC(=O)[C@H](CCN)NC(=O)[C@H](CC(C)C)NC(=O)[C@@H](Cc2ccccc2)NC(=O)[C@H](CCN)NC1=O)[C@@H](C)OC(=O)[C@@H](N)CO`, for which the MIC with Moraxella catarrhalis worked out at 32 µg/mL (≈ 25.1 µM); with Acinetobacter baumannii it was 0.125 µg/mL (≈ 0.0979 µM); in the data set with Pseudomonas aeruginosa [1], 1 µg/mL (≈ 0.783 µM); in the data set on Escherichia coli, 0.25 µg/mL (≈ 0.196 µM); in the data set on Klebsiella pneumoniae it was 1 µg/mL (≈ 0.783 µM); in the data set on Pseudomonas aeruginosa [2], 0.25 µg/mL (≈ 0.196 µM).
Regarding `CC(C)CCCCC(=O)N[C@@H](CCN)C(=O)N[C@H](C(=O)N[C@@H](CCN)C(=O)N[C@H]1CCNC(=O)[C@H]([C@@H](C)O)NC(=O)[C@H](CCN)NC(=O)[C@H](CCN)NC(=O)[C@H](CC(C)C)NC(=O)[C@@H](Cc2ccccc2)NC(=O)[C@H](CCN)NC1=O)[C@@H](C)OC(=O)[C@@H](N)CCCCN`, the MIC was > 64 µg/mL in the data set on Moraxella catarrhalis; 0.125 µg/mL (≈ 0.0949 µM) with Acinetobacter baumannii; 2 µg/mL (≈ 1.52 µM) with Pseudomonas aeruginosa [1]; 0.5 µg/mL (≈ 0.379 µM) in the data set with Escherichia coli; 4 µg/mL (≈ 3.04 µM) in the data set on Klebsiella pneumoniae; 0.25 µg/mL (≈ 0.19 µM) in the data set on Pseudomonas aeruginosa [2].
Take `CCCCCCCC(=O)N[C@@H](CCN)C(=O)N[C@H](C(=O)N[C@@H](CCN)C(=O)N[C@H]1CCNC(=O)[C@H](CCC(N)=O)NC(=O)[C@H](CCN)NC(=O)[C@H](CCN)NC(=O)[C@H](CC(C)C)NC(=O)[C@@H](Cc2ccccc2)NC(=O)[C@H](CCN)NC1=O)[C@@H](C)O`: the Activity entry in the data set on HK-2 is on record as “Non-Toxic”. In addition, in the data set on Pseudomonas aeruginosa [1], the MIC was determined as 32 µg/mL (≈ 26.3 µM).
With `CC(C)CCCCC(=O)N[C@@H](CCN)C(=O)N[C@H](C(=O)N[C@@H](CCN)C(=O)N[C@H]1CCNC(=O)[C@H]([C@@H](C)O)NC(=O)[C@H](CCN)NC(=O)[C@H](CCN)NC(=O)[C@H](CC(C)C)NC(=O)[C@@H](Cc2ccccc2)NC(=O)[C@H](CCN)NC1=O)[C@@H](C)OC(=O)[C@@H](N)CCCNC(=N)N`, the MIC in the data set on Moraxella catarrhalis was > 16 µg/mL; in the data set with Acinetobacter baumannii it was 0.25 µg/mL (≈ 0.186 µM); in the data set on Pseudomonas aeruginosa [1], 2 µg/mL (≈ 1.49 µM); with Escherichia coli it was 0.5 µg/mL (≈ 0.372 µM); in the data set on Klebsiella pneumoniae it was 1 µg/mL (≈ 0.743 µM); with Pseudomonas aeruginosa [2] it was 0.5 µg/mL (≈ 0.372 µM).
With `CC(C)CCCCC(=O)N[C@@H](CCN)C(=O)N[C@H](C(=O)N[C@@H](CCN)C(=O)N[C@H]1CCNC(=O)[C@H]([C@@H](C)O)NC(=O)[C@H](CCN)NC(=O)[C@H](CCN)NC(=O)[C@H](CC(C)C)NC(=O)[C@@H](Cc2ccccc2)NC(=O)[C@H](CCN)NC1=O)[C@@H](C)OC(=O)CN`, the MIC with Moraxella catarrhalis was > 16 µg/mL; in the data set with Acinetobacter baumannii, 0.06 µg/mL (≈ 0.0481 µM); with Pseudomonas aeruginosa [1], 2 µg/mL (≈ 1.6 µM); in the data set with Escherichia coli, 0.25 µg/mL (≈ 0.201 µM); in the data set with Klebsiella pneumoniae it was 1 µg/mL (≈ 0.802 µM); with Pseudomonas aeruginosa [2], 0.25 µg/mL (≈ 0.201 µM).
Consider `CSCC[C@H](N)C(=O)O[C@H](C)[C@H](NC(=O)[C@H](CCN)NC(=O)CCCCC(C)C)C(=O)N[C@@H](CCN)C(=O)N[C@H]1CCNC(=O)[C@H]([C@@H](C)O)NC(=O)[C@H](CCN)NC(=O)[C@H](CCN)NC(=O)[C@H](CC(C)C)NC(=O)[C@@H](Cc2ccccc2)NC(=O)[C@H](CCN)NC1=O`, for which the MIC in the data set with Moraxella catarrhalis is > 16 µg/mL; with Acinetobacter baumannii it was 0.125 µg/mL (≈ 0.0946 µM); with Pseudomonas aeruginosa [1], 2 µg/mL (≈ 1.51 µM); in the data set with Escherichia coli it was 0.25 µg/mL (≈ 0.189 µM); with Klebsiella pneumoniae, 2 µg/mL (≈ 1.51 µM); in the data set on Pseudomonas aeruginosa [2], 0.125 µg/mL (≈ 0.0946 µM).
`CC(C)CCCCC(=O)N[C@@H](CCN)C(=O)N[C@H](C(=O)N[C@@H](CCN)C(=O)N[C@H]1CCNC(=O)[C@H]([C@@H](C)O)NC(=O)[C@H](CCN)NC(=O)[C@H](CCN)NC(=O)[C@H](CC(C)C)NC(=O)[C@@H](Cc2ccccc2)NC(=O)[C@H](CCN)NC1=O)[C@H](C)OC(=O)[C@@H](N)CCC(N)=O`: the MIC in the data set with Moraxella catarrhalis is > 32 µg/mL; with Acinetobacter baumannii, 0.06 µg/mL (≈ 0.0455 µM); in the data set on Pseudomonas aeruginosa [1], 2 µg/mL (≈ 1.52 µM); with Escherichia coli it was 0.5 µg/mL (≈ 0.379 µM); with Klebsiella pneumoniae, 2 µg/mL (≈ 1.52 µM); in the data set with Pseudomonas aeruginosa [2], 0.25 µg/mL (≈ 0.19 µM).
Consider `CC(C)CCCCC(=O)N[C@@H](CCN)C(=O)N[C@H](C(=O)N[C@@H](CCN)C(=O)N[C@H]1CCNC(=O)[C@H]([C@@H](C)O)NC(=O)[C@H](CCN)NC(=O)[C@H](CCN)NC(=O)[C@H](CC(C)C)NC(=O)[C@@H](Cc2ccccc2)NC(=O)[C@H](CCN)NC1=O)[C@@H](C)OC(=O)[C@@H](N)CS`, for which the MIC amounted to 32 µg/mL (≈ 24.8 µM) with Moraxella catarrhalis; 0.125 µg/mL (≈ 0.0967 µM) in the data set with Acinetobacter baumannii; 2 µg/mL (≈ 1.55 µM) with Pseudomonas aeruginosa [1]; 0.25 µg/mL (≈ 0.193 µM) with Escherichia coli; 1 µg/mL (≈ 0.774 µM) with Klebsiella pneumoniae; 0.25 µg/mL (≈ 0.193 µM) in the data set on Pseudomonas aeruginosa [2].
As for `CC(C)CCCCC(=O)N[C@@H](CCN)C(=O)N[C@H](C(=O)N[C@@H](CCN)C(=O)N[C@H]1CCNC(=O)[C@H]([C@@H](C)O)NC(=O)[C@H](CCN)NC(=O)[C@H](CCN)NC(=O)[C@H](CC(C)C)NC(=O)[C@@H](Cc2ccccc2)NC(=O)[C@H](CCN)NC1=O)[C@@H](C)OC(=O)[C@@H](N)Cc1c[nH]c2ccccc12`, the MIC in the data set with Moraxella catarrhalis is > 32 µg/mL; in the data set with Acinetobacter baumannii it was 0.06 µg/mL (≈ 0.0436 µM); with Pseudomonas aeruginosa [1] it was 2 µg/mL (≈ 1.45 µM); with Escherichia coli, 0.25 µg/mL (≈ 0.182 µM); in the data set on Klebsiella pneumoniae, 2 µg/mL (≈ 1.45 µM); with Pseudomonas aeruginosa [2], 0.125 µg/mL (≈ 0.0909 µM).
For the molecule `CC[C@H](C)CCCCC(=O)N[C@@H](CCN)C(=O)N[C@H](C(=O)N[C@@H](CCN)C(=O)N[C@H]1CCNC(=O)[C@H]([C@@H](C)O)NC(=O)[C@H](CCN)NC(=O)[C@H](CCN)NC(=O)[C@H](CC(C)C)NC(=O)[C@@H](Cc2ccccc2)NC(=O)[C@H](CCN)NC1=O)[C@@H](C)OC(=O)[C@@H](N)CCC(N)=O` [listing 1 of 2 here], the Activity result in the data set on HK-2 is “Non-Toxic”.
With `CC[C@H](C)CCCCC(=O)N[C@@H](CCN)C(=O)N[C@H](C(=O)N[C@@H](CCN)C(=O)N[C@H]1CCNC(=O)[C@H]([C@@H](C)O)NC(=O)[C@H](CCN)NC(=O)[C@H](CCN)NC(=O)[C@H](CC(C)C)NC(=O)[C@@H](Cc2ccccc2)NC(=O)[C@H](CCN)NC1=O)[C@@H](C)OC(=O)[C@@H](N)CCC(N)=O` [listing 2 of 2 here], the MIC was > 32 µg/mL with Moraxella catarrhalis; 0.06 µg/mL (≈ 0.0451 µM) in the data set with Acinetobacter baumannii; 2 µg/mL (≈ 1.5 µM) in the data set with Pseudomonas aeruginosa [1]; 0.25 µg/mL (≈ 0.188 µM) in the data set with Escherichia coli; 2 µg/mL (≈ 1.5 µM) in the data set on Klebsiella pneumoniae; 0.125 µg/mL (≈ 0.0939 µM) in the data set on Pseudomonas aeruginosa [2].
As to `CC[C@H](C)CCCCC(=O)N[C@@H](CCN)C(=O)N[C@H](C(=O)N[C@@H](CCN)C(=O)N[C@H]1CCNC(=O)[C@H]([C@@H](C)O)NC(=O)[C@H](CCN)NC(=O)[C@H](CCN)NC(=O)[C@H](CC(C)C)NC(=O)[C@@H](Cc2ccccc2)NC(=O)[C@H](CCN)NC1=O)[C@@H](C)OC(=O)[C@@H](N)CCC(=O)O`, the Activity entry with HK-2 is on record as “Non-Toxic”.
For the molecule `CCCCCCCC(=O)N[C@@H](CCN)C(=O)N[C@H](C(=O)N[C@@H](CCN)C(=O)N[C@H]1CCNC(=O)[C@H](CC(C)C)NC(=O)[C@H](CCN)NC(=O)[C@H](CCN)NC(=O)[C@H](CC(C)C)NC(=O)[C@@H](Cc2ccccc2)NC(=O)[C@H](CCN)NC1=O)[C@@H](C)O` (Octanoyl-[Dab]T[Dab][Dab][Dab][dF]L[Dab][Dab]L; lactam 4-C), the MIC with Moraxella catarrhalis amounted to 2 µg/mL (≈ 1.66 µM); with Acinetobacter baumannii it was 2 µg/mL (≈ 1.66 µM); in the data set on Pseudomonas aeruginosa [1], 4 µg/mL (≈ 3.33 µM); with Escherichia coli, 4 µg/mL (≈ 3.33 µM); in the data set with Klebsiella pneumoniae, 2 µg/mL (≈ 1.66 µM); in the data set on Pseudomonas aeruginosa [2], 0.25 µg/mL (≈ 0.208 µM).
Turning to `CCCCCCCC(=O)N[C@@H](CCN)C(=O)NC(Cc1ccc(O)cc1)C(=O)N[C@@H](CCN)C(=O)N[C@H]1CCNC(=O)[C@H]([C@@H](C)O)NC(=O)[C@H](CCN)NC(=O)[C@H](CCN)NC(=O)[C@H](CC(C)C)NC(=O)[C@@H](Cc2ccccc2)NC(=O)[C@H](CCN)NC1=O` (single isomer, unassigned), the MIC in the data set with Moraxella catarrhalis was 8 µg/mL (≈ 6.39 µM); in the data set with Acinetobacter baumannii, > 64 µg/mL; with Pseudomonas aeruginosa [1], 32 µg/mL (≈ 25.6 µM); with Escherichia coli, 16 µg/mL (≈ 12.8 µM); in the data set on Klebsiella pneumoniae it was > 64 µg/mL; in the data set on Pseudomonas aeruginosa [2] it was 2 µg/mL (≈ 1.6 µM).
